Results reported in patent US6664231B1, “Anti-fungal peptides” (priority 1993, dated 2003).
Square brackets hold non-standard residues; d marks the D form. Peptide text beside a SMILES is read from it. Phe(4-NH2) = Nc1ccc(C[C@H](N)C(=O)O)cc1; 1Nal = N[C@@H](Cc1cccc2ccccc12)C(=O)O; d2Nal = N[C@H](Cc1ccc2ccccc2c1)C(=O)O

Test system: C. albicans (CA-1, Strain SLU-1)
Experiment: Radial diffusion assay
Type: cell-based, Candida albicans
Conditions: for C. albicans pmol/30 mm^2 zone: pmoles of peptide added to well to achieve a 30 mm^2 zone, PROBIT analysis, crude or purified (P′) peptide
Method in brief: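 Peptides, serially diluted 2-fold in D-PBS (top ~1 mg/mL), diffused 3 h at 37° C into pH 7.4 phosphate-buffered agarose seeded with 1×10^6 CFU/mL yeast, before overnight growth under a 6% Sabouraud overlayer. Net inhibition zones measured after Coomassie staining; PROBIT fit of log pmol vs area gave pmol for 30 mm^2.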

Row | Compound | C. albicans pmol/30 mm^2 zone | also measured
1 | CC[C@H](C)[C@H](NC(=O)[C@H](CC(C)C)NC(=O)[C@H](Cc1ccc(N)cc1)NC(=O)[C@H](CCCCN)NC(=O)[C@@H](N)CCCCN)C(=O)N[C@@H](CCC(N)=O)C(=O)N[C@@H](CC(C)C)C(=O)N[C@@H](CCCCN)C(=O)N[C@@H](CCCCN)C(N)=O [XMP.346] (H-KK[Phe(4-NH2)]LIQLKK-NH2) | 640 pmol/30 mm^2 zone | –
2 | H-KVKWLIQLF-NH2 [Peptide 295] | – | Plate Assay (nmol), pure peptide activity (HPLC-purified peptide, nanomoles required to achieve a net 30 mm^2 zone (log titration curve)): >2.612 nmol; Plate Assay (nmol), crude peptide activity (crude peptide, nanomoles required to achieve a net 30 mm^2 zone (log titration curve)): >1.977 nmol
3 | H-KSKVGWLIQFFHKK-NH2 [XMP.113] | 947 pmol/30 mm^2 zone | –
4 | H-KSKVGWLIFLFHKKKSKVGWLIFLFHKK-NH2 [XMP.275] | b (No detectable activity up to 5 μg/well) | –
5 | CC[C@H](C)[C@H](NC(=O)[C@H](CC(C)C)NC(=O)[C@H](Cc1c[nH]c2ccccc12)NC(=O)[C@H](CCCCN)NC(=O)[C@@H](N)CCCCN)C(=O)N[C@@H](CCC(N)=O)C(=O)N[C@@H](CC(C)C)C(=O)N[C@@H](CCCCN)C(N)=O [XMP.326] | 2,182 pmol/30 mm^2 zone | –
6 | CC[C@H](C)[C@H](NC(=O)[C@H](CC(C)C)NC(=O)[C@H](Cc1c[nH]c2ccccc12)NC(=O)[C@@H](N)CCCCN)C(=O)N[C@@H](CCC(N)=O)C(=O)N[C@@H](CC(C)C)C(=O)N[C@@H](CCCCN)C(=O)N[C@@H](CCCCN)C(N)=O [XMP.324] | 894 pmol/30 mm^2 zone | –
7 | H-KSKVGWLIELFHKK-NH2 [XMP.263] | 1,197 pmol/30 mm^2 zone | –
8 | H-KVKWLIQLF-NH2 [XMP.295] | >1,977 pmol/30 mm^2 zone | C. albicans pmol/30 mm^2 zone (listed as XMP.295P′): >2,612 pmol/30 mm^2 zone
9 | CC[C@H](C)[C@H](NC(=O)[C@H](CC(C)C)NC(=O)[C@@H](N)Cc1c[nH]c2ccccc12)C(=O)N[C@@H](CCC(N)=O)C(=O)N[C@@H](CC(C)C)C(=O)N[C@@H](Cc1ccccc1)C(=O)N[C@@H](Cc1c[nH]cn1)C(=O)N[C@@H](CCCCN)C(N)=O [XMP.303] | >4,694 pmol/30 mm^2 zone | C. albicans pmol/30 mm^2 zone (listed as XMP.303P′): 1,307 pmol/30 mm^2 zone
10 | CC[C@H](C)[C@H](NC(=O)[C@H](CC(C)C)NC(=O)[C@H](Cc1c[nH]c2ccccc12)NC(=O)CNC(=O)[C@@H](NC(=O)[C@H](CCCCN)NC(=O)[C@H](CO)NC(=O)[C@@H](N)CCCCN)C(C)C)C(=O)N[C@@H](CCC(N)=O)C(=O)N[C@@H](Cc1cccc2ccccc12)C(=O)N[C@@H](Cc1ccccc1)C(=O)N[C@@H](Cc1c[nH]cn1)C(=O)N[C@@H](CCCCN)C(=O)N[C@@H](Cc1cccc2ccccc12)C(N)=O [XMP.227] (H-KSKVGWLIQ[1Nal]FHK[1Nal]-NH2) | >2,365 pmol/30 mm^2 zone | –
11 | H-KSKVKWLIKLFFKFKSKVKWLIKLFFKF-NH2 [XMP.101] | >1040 pmol/30 mm^2 zone | –
12 | H-KSKVGWLIQLFHKA-NH2 [XMP.44] | 578 pmol/30 mm^2 zone | –
13 | Ac-PWLIQLFHKK-OH [XMP.354] | 6,361 pmol/30 mm^2 zone | –
14 | CC[C@H](C)[C@H](NC(=O)[C@H](CC(C)C)NC(=O)[C@@H](Cc1ccc2ccccc2c1)NC(=O)CNC(=O)[C@@H](NC(=O)[C@H](CCCCN)NC(=O)[C@H](CO)NC(=O)[C@@H](N)CCCCN)C(C)C)C(=O)N[C@@H](CCC(N)=O)C(=O)N[C@@H](CC(C)C)C(=O)N[C@@H](Cc1ccccc1)C(=O)N[C@@H](Cc1c[nH]cn1)C(=O)N[C@@H](CCCCN)C(=O)N[C@@H](CCCCN)C(N)=O [XMP.131] (H-KSKVG[d2Nal]LIQLFHKK-NH2) | 2493 pmol/30 mm^2 zone | –
